pKi: −log10 of the molar value.
Each molecule was assayed on C57 black 6 mice (assay: In vivo hair generation test, Experiment B (shaved C57 Black 6 mice, topical, 14 days)). Settings: one micromole per milliliter topical, three times per week, 14 days after initiation of treatment.
Description: Care was taken not to nick or cause abrasion to the underlying dermal layers. The animals were in anagen growth phase when shaved. […] The animals were treated three times per week, and hair growth was evaluated 14 days after initiation of treatment.

| SMILES | hair growth (Figure 5, relative hair growth index) |
| --- | --- |
| CCC(C)(C)C(=O)C(=O)N1CCC[C@H]1C(=O)SCCC(c1ccccc1)c1ccccc1 [GPI 1234] | dramatic hair growth |
| CCC(C)(C)C(=O)C(=O)N1CCCC[C@H]1C(=O)SCCC(c1ccccc1)c1ccccc1 [GPI 1511] | dramatic hair growth |

These molecules were tested against FKBP12 (Homo sapiens, UniProt P62942) (assay: Ki test procedure: inhibition of peptidyl-prolyl isomerase (rotamase) activity, chymotrypsin-coupled assay). Settings: not given.
FKBP12, sequence (P62942 whole entry, species assumed): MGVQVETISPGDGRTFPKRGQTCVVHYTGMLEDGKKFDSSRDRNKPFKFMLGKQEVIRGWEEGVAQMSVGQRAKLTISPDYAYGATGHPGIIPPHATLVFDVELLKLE
Format: biochemical
Excerpt: The inhibition of the prolyl peptidyl cis-trans isomerase activity of FKBP may be measured as an indicator of this affinity.
Inhibition of the peptidyl-prolyl isomerase (rotamase) activity of the compounds used in the inventive methods and pharmaceutical compositions can be evaluated by known methods described in the literature (Harding et al., Nature, 1989, 341:758-760; Holt et al. J. Am. Chem. Soc., 115:9923-9938).
The cis-trans isomerization of an alanine-proline bond in a model substrate, N-succinyl-Ala-Ala-Pro-Phe-p-nitroanilide, is monitored spectrophotometrically in a chymotrypsin-coupled assay, which releases paranitroanilide from the trans form of the substrate. The inhibition of this reaction caused by the addition of different concentrations of inhibitor is determined, and the data is analyzed as a change in first-order rate constant as a function of inhibitor concentration to yield the apparent Ki values.
In a plastic cuvette are added […] of ice cold assay buffer (25 mM HEPES, pH 7.8, 100 mM NaCl), 10 mL of FKBP (2.5 mM in 10 mM Tris-Cl pH 7.5, 100 mM NaCl, 1 mM dithiothreitol), […] of chymotrypsin (50 mg/ml in 1 mM HCl) and […] of test compound at various concentrations in dimethyl sulfoxide. The reaction is initiated by the addition of 5 mL of substrate (succinyl-Ala-Phe-Pro-Phe-para-nitroanilide, 5 mg/mL in 2.35 mM LiCl in trifluoroethanol).
The absorbance at 390 nm versus time is monitored for 90 seconds using a spectrophotometer and the rate constants are determined from the absorbance versus time data files.

| SMILES | pKi |
| --- | --- |
| O=C(C(=O)N1CCC[C@H]1C(=O)SCCc1ccccc1)C1CCCCC1 [Compound 12] | 6.35 |
| O=C(C(=O)N1CCCCC1C(=O)SCCc1ccccc1)c1ccccc1 (stereo not drawn) [Compound 14] | 6.50 |
| CC(C)(C)C(=O)C(=O)N1CCCCC1C(=O)SCCCc1ccccc1 (stereo not drawn) [Compound 29] | 7.23 |
| O=C(C(=O)N1CCC[C@H]1C(=O)SCCCCc1ccccc1)C1CCCCC1 [Compound 33] | 5.77 |
| O=C(C(=O)N1CCC[C@H]1C(=O)SCCCc1cccnc1)C1CCCCC1 [Compound 35] | 7.21 |
| CC(C)(C)C(=O)C(=O)N1CCCCC1C(=O)SCCCCc1ccccc1 (stereo not drawn) [Compound 39] | 6.46 |
| COc1ccc(CCCSC(=O)C2CCCCN2C(=O)C(=O)c2ccccc2)cc1 (stereo not drawn) [Compound 43] | 6.59 |
| CCC(C)(C)C(=O)C(=O)N1CCCC1C(=O)SCCCC(c1ccc(F)cc1)c1ccc(F)cc1 (stereo not drawn) [Compound 46] | 6.12 |
| CCC(C)(C)C(=O)C(=O)N1CCC[C@H]1C(=O)SCCCc1cccc2ccccc12 [Compound 47] | 7.68 |
| CCC(C)(C)C(=O)C(=O)N1CCC[C@H]1C(=O)SCCCc1cccc(Cl)c1 [Compound 54] | 7.43 |
| CCC(C)(C)C(=O)C(=O)N1CCC[C@H]1C(=O)SCCCc1ccccc1F [Compound 57] | 7.24 |
| CCC(C)(C)C(=O)C(=O)N1CCC[C@H]1C(=O)SCCCc1cccc(F)c1 [Compound 58] | 7.10 |
| CCC(C)(C)C(=O)C(=O)N1CCCCC1C(=O)SCCCCc1ccccc1 (stereo not drawn) [Compound 59] | 6.02 |
| CCC(C)(C)C(=O)C(=O)N1CCCCC1C(=O)SCCCc1ccccc1 (stereo not drawn) [Compound 60] | 7.05 |
| CCC(C)(C)C(=O)C(=O)N1CCC[C@H]1C(=O)SCCCc1ccccc1Cl [Compound 61] | 6.86 |
| CCC(C)(C)C(=O)C(=O)N1CCCCC1C(=O)SCCCc1cccc(F)c1 (stereo not drawn) [Compound 64] | 6.79 |

Same assay, conditions: apparent Ki, rotamase inhibition

| SMILES | pKi |
| --- | --- |
| CCC(C)(C)C(=O)C(=O)N1CCCCC1C(=O)SCCCc1ccc2ccccc2c1 [Compound 53, 3-(2-Naphthyl)propyl (2R, S) -1-(3,3-dimethyl-2-oxopentanoyl)-2-piperidinecarbothioate] | 6.58 |

Same assay, conditions: apparent Ki, rotamase inhibition; read-out: Ki

| SMILES | pKi |
| --- | --- |
| CCC(C)(C)C(=O)C(=O)N1CCC[C@H]1C(=O)SCc1csc2ccccc12 [Compound 11, (3-Thioindolyl) methyl (2S) -1-(3,3-dimethyl-1,2-dioxopentyl)-2-pyrrolidinecarbothioate] | 6.52 |

The molecules below were run on C57 black 6 mice (assay: In vivo hair generation test, Experiment A (shaved C57 black 6 mice, topical)). Settings: 30 µM topical in 20% propylene glycol, 3 applications over 5 days, after six weeks.
Excerpt: Care was taken not to nick or cause abrasion to the underlaying dermal layers. The animals were in anagen growth phase, as indicated by the pinkish color of the skin. […] Hair growth was quantitated by the percent of shaved area covered by new hair growth during this time period.

| SMILES | hair regrowth in the shaved area |
| --- | --- |
| CCC(C)(C)C(=O)C(=O)N1CCC[C@H]1C(=O)OCCCc1cccnc1 [GPI 1046, 3-(3-pyridyl)-1-propyl (2s)-1-(3,3-dimethyl-1,2-dioxopentyl)-2-pyrrolidinecarboxylate] | essentially complete hair regrowth |

From EP1083873B1 (MGI GP, Inc., priority 1998, dated 1999)
